Counter-ions that a name gives are not always drawn.
Assays:
[1] = system: cultured human colorectal cancer cells, HCT-116; details: HCT-116, as obtained from Yakult Honsha; cited from earlier work
[2] = system: cultured human colorectal cancer cells, HT-29; details: HT-29, as obtained from Yakult Honsha; cited from earlier work
[3] = system: cultured human colorectal cancer cells, HT-29; assay: Serum metabolome (CE-TOFMS) of HT-29 cancer-bearing mice after CPT-11; type: in vivo, nude mice (BALB/cAJcl-nu/nu); details: HT-29 transplanted, 90 mg/kg as CPT-11
Procedure: (§1) After the transplantation, a tumor size was measured by using the following formula: (longer tumor diameter)×(shorter tumor diameter)^2/2. When the tumor size reached 300 to 400 mm^3, the mice were randomly assigned to a CPT-11 administration group and a solvent administration group (a CPT-11 non-administration group). The day when the mice were assigned to two groups was defined as day 0. CAMPTO™ as a preparation of CPT-11 in an amount of 4.5 mL/kg (90 mg/kg as CPT-11 amount) and the solvent for dissolving CAMPTO™ (D-sorbitol, lactic acid, pH adjuster) were administered slowly to the CPT-11 administration group and a CPT-11 non-administration group, respectively, from the tail vein. The tumor size was measured on day 0, and 12 hours, 24 hours, 72 hours, and 7 days after the administration. The blood was collected after the dissection. […]
(§2) The comprehensive measurement of the metabolites in a serum was carried out by using a capillary electrophoresis time-of-flight mass spectrometry (CE-TOFMS) system manufactured by Agilent Technologies, Inc. In this examination, a voltage was applied such that an output of the capillary was a cathode, and cationic metabolites were comprehensively measured. […]

[4] = system: cultured human colorectal cancer cells, HCT-116; assay: Serum metabolome (CE-TOFMS) of HCT-116 cancer-bearing mice after CPT-11; type: in vivo, nude mice (BALB/cAJcl-nu/nu); details: HCT-116 transplanted, 90 mg/kg as CPT-11
Procedure: as §1, §2

[5] = system: cultured human colorectal cancer cells, HCT-116; assay: Tumor size in nude mice with subcutaneously transplanted HCT-116 cells; type: in vivo, nude mice (BALB/cAJcl-nu/nu); details: 7 days after the administration
Procedure: (§3) Six-week-old, male nude mice (BALB/cAJcl-nu/nu) purchased from CLEA Japan, Inc. were used and allowed to ingest a general feed and drink water freely in a thermostatic chamber. A protocol following the animal experiment guideline in School of Medicine, Keio University was applied and then approved. Then, this examination was carried out humanely.
(§4) CAMPTO™ as a preparation of CPT-11 and a solvent for dissolving Campto (hereinafter, referred to as “solvent”) were obtained from Yakult Honsha, Co., Ltd.
After the transplantation, a tumor size was measured by using the following formula: (longer tumor diameter)×(shorter tumor diameter)^2/2. When the tumor size reached 300 to 400 mm^3, the mice were randomly assigned to a CPT-11 administration group and a solvent administration group (a CPT-11 non-administration group). The day when the mice were assigned to two groups was defined as day 0. CAMPTO™ as a preparation of CPT-11 in an amount of 4.5 mL/kg (90 mg/kg as CPT-11 amount) and the solvent for dissolving CAMPTO™ (D-sorbitol, lactic acid, pH adjuster) were administered slowly to the CPT-11 administration group and a CPT-11 non-administration group, respectively, from the tail vein. The tumor size was measured on day 0, and 12 hours, 24 hours, 72 hours, and 7 days after the administration. The blood was collected after the dissection. After the centrifugation of the collected blood at 10,000 rpm for 10 minutes, a serum fraction was frozen with liquid nitrogen and stored at −80° C. until the serum fraction was used in preparation of a sample for metabolome analysis. As a control group, a cancer cell-non-transplanted group was produced and the same treatment was carried out.
(§5) After the transplantation, a tumor size was measured by using the following formula: (longer tumor diameter)×(shorter tumor diameter)^2/2. When the tumor size reached 300 to 400 mm^3, the mice were randomly assigned to a CPT-11 administration group and a solvent administration group. The tumor size was measured on day 0, and 12 hours, 24 hours, 72 hours, and 7 days after the administration. […]

[6] = system: cultured human colorectal cancer cells, HT-29; assay: Tumor size in nude mice with subcutaneously transplanted HT-29 cells; type: in vivo, nude mice (BALB/cAJcl-nu/nu); details: conclusion from tumor size, 7 days after the administration
Procedure: as §3, §4
as §5, with “group (a CPT-11 non-administration group). The day when the mice were assigned to two groups was defined as day 0. […]” for “group.”
After the transplantation, a tumor size was measured by using the following formula: (longer tumor diameter)×(shorter tumor diameter)^2/2. […] The tumor size was measured on day 0, and 12 hours, 24 hours, 72 hours, and 7 days after the administration. […]

[7] = background statement; cited from earlier work
[8] = 12 hours after the administration
[9] = 24 hours after the administration

CCc1c2c(nc3ccc(O)cc13)-c1cc3c(c(=O)n1C2)COC(=O)[C@]3(O)CC [SN-38, 7-ethyl-10-hydroxycamptothecin]
sensitivity of cells to SN-38 [1]: high sensitivity | sensitivity of cells to SN-38 [2]: low sensitivity

CCc1c2c(nc3ccc(OC(=O)N4CCC(N5CCCCC5)CC4)cc13)-c1cc3c(c(=O)n1C2)COC(=O)[C@]3(O)CC [CPT-11, Irinotecan hydrochloride]
serum expression level of peak at m/z 104.070 (N,N-dimethyl glycine), CPT-11 group vs solvent group [3, 8]: the same level | serum expression level of peak at m/z 166.086 (L-phenylalanine), CPT-11 group vs solvent group [3, 9]: the same level | serum expression level of peak at m/z 104.070 (N,N-dimethyl glycine), CPT-11 administration group [4, 8]: decreased to the same level as in the control group | serum expression level of peak at m/z 166.086 (L-phenylalanine), CPT-11 administration group [4, 9]: decreased to the same level as in the control group | tumor size, CPT-11 group with HCT-116 vs CPT-11 group with HT-29 ([5]; 90 mg/kg as CPT-11, tail vein): significant difference (p=0.04979) | tumor size, CPT-11 administration group vs solvent administration group ([5]; HCT-116 transplanted, 90 mg/kg as CPT-11, tail vein): significant difference (p=0.01319) | sensitivity of HCT-116 to CPT-11 compared to HT-29 ([5]; conclusion from tumor size): high sensitivity | sensitivity of HT-29 to CPT-11 compared to HCT-116 [6]: low sensitivity

CCc1c2c(nc3ccc(O[C@@H]4O[C@H](C(=O)O)[C@@H](O)[C@H](O)[C@H]4O)cc13)-c1cc3c(c(=O)n1C2)COC(=O)[C@]3(O)CC [SN-38G]
cytotoxicity [7]: no cytotoxicity
